One data set concerns the target Human 11β-HSD1 (Homo sapiens, UniProt P28845). The data set can be described thus: Evaluation of compound against human 11β-HSD1 (HTRF cortisol assay, cortisone substrate). The format is biochemical. The note with it: cortisone 5 μM, 37° C. 2 hours. The method, then:
Evaluation Method of […] Inhibitor (Evaluation of Compound Against Human 11β-HSD1)
(§1) After preincubating an inhibitor in a reaction solution consisting of 50 mM sodium phosphate buffer (pH 7.5), bovine serum albumin (1 mg/mL), NADPH (0.42 mg/mL), glucose-6-phosphate (1.26 mg/mL), glucose-6-phosphate dehydrogenase and an enzyme at room temperature for 30), (Inutes, cortisone (5 μM) was added as a substrate (total amount 10 μL). After reacting at 37° C. for 2 hours, an XL-665-labeled cortisol solution (5 μL), and a Cryptate-labeled anti-cortisol antibody solution (5 μL) were added. The reaction was performed at room temperature for 2 hours, and fluorescence intensity (HTRF method) was measured. A cortisol concentration was calculated from a standard curve prepared using a known concentration of cortisol for each assay.
Taking a concentration of cortisol generated in the absence of the inhibitor as a control value, 50% inhibitory concentration (IC50 value) of the inhibitor against 11β-HSD1 was calculated from an inhibition curve plotting inhibition rate against the control value at each concentration of an inhibitor.
(In general: TR-FRET usually uses a lanthanide donor and a delayed reading to cut background.)

The next data set concerns the target Mouse 11β-HSD1 (Mus musculus, UniProt P50172). The data set can be described thus: Evaluation of compound against mouse 11β-HSD1 (HTRF assay, 11-dehydrocorticosterone substrate). Conditions: 11-dehydrocorticosterone 2 μM, 37° C. 2 hours. The format is biochemical. The method, then:
Evaluation Method of 11β-HSD1 Inhibitor (Evaluation of Compound Against Mouse 11β-HSD1)
as §1, with “dehydrogenase,” for “dehydrogenase”, “30 minutes, 11-dehydrocorticosterone (2” for “30), (Inutes, cortisone (5”, “measured.” for “measured. A cortisol concentration was calculated from a standard curve prepared using a known concentration of cortisol for each assay.”
A corticosterone concentration was calculated from a standard curve prepared using a known concentration of corticosterone for each assay.
Taking a concentration of corticosterone generated in the absence of the inhibitor as a control value, 50% inhibitory concentration (IC50 value) of the inhibitor against 11β-HSD1 was calculated from an inhibition curve plotting inhibition rate against the control value at each concentration of the inhibitor.

The nature of data set [1]: log k′ (degree of lipophilic character) by gradient HPLC. The format is physicochemical. Conditions: XTerra MS C18 column; acetonitrile/pH6.8 buffer gradient 5:95-95:5/20 min. The method, then:
As to each compound, the measurement results of NMR or log k′ were disclosed.
log k′ is a value which means degree of the lipophilic character, and is calculated by the following formula. log k′=log(tR−t0)/t0 • tR: retention time of compound under gradient condition • t0: retention time of standard material not retained in column
XTerra MS C18 5 μm, 2.1×100 mm column (made by Waters) was used for measurement. The elution was a straight line inclination of acetonitrile/pH6.8 buffer (5:95˜95:5/20 min) at flow velocity 0.25 mL/min.

Each structure is given as a SMILES string. pIC50: −log10 of the molar value.

Human 11β-HSD1, sequence (P28845 whole entry): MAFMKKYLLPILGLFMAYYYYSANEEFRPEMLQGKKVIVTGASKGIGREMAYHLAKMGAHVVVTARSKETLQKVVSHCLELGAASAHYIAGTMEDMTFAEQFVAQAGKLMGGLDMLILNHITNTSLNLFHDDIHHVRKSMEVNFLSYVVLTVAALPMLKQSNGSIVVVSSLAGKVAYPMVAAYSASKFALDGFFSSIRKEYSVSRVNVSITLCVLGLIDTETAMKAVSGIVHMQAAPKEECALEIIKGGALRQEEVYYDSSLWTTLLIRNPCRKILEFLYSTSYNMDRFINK
Mouse 11β-HSD1, sequence (P50172 whole entry): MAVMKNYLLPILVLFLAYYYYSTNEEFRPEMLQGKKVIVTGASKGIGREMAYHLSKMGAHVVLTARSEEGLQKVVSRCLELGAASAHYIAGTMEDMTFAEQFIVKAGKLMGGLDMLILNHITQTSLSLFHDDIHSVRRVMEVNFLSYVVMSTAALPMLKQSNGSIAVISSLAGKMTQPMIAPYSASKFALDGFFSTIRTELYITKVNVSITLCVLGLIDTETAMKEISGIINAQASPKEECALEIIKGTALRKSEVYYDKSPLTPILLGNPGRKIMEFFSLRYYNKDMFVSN

As a reminder, the pIC50 is the negative decadic logarithm of the IC50, by convention in mol/L. Take `CC(C)COc1c(C(=O)N[C@H]2C3CC4CC2C[C@](OC(N)=O)(C4)C3)cnn1/C=C/C(C)(C)C#N` [Compound I-7]: the figures for the negative logarithm of the IC50 (pIC50) at Human 11β-HSD1 and against Mouse 11β-HSD1 were 8.47 and 9.39, respectively. Take `CC(C)COc1c(C(=O)N[C@H]2C3CC4CC2C[C@](OC(N)=O)(C4)C3)cnn1/C=C/C(C)(C)NS(C)(=O)=O` [Compound I-9]: the negative logarithm of the IC50 (pIC50) on Human 11β-HSD1 was 7.96; against Mouse 11β-HSD1, 8.77. In the case of `CC(=O)NC(C)(C)/C=C/n1ncc(C(=O)N[C@H]2C3CC4CC2C[C@](CO)(C4)C3)c1-c1ccccc1` [Compound I-131], the pIC50 was 7.68 on Human 11β-HSD1 and 8.85 against Mouse 11β-HSD1. In the case of `COC(=O)NC(C)(C)/C=C/n1ncc(C(=O)N[C@H]2C3CC4CC2C[C@](O)(C4)C3)c1-n1cccn1` [Compound I-133], the figures for the pIC50 against Human 11β-HSD1 and at Mouse 11β-HSD1 were 7.12 and 9.28, respectively. On to `CC(=O)NC(C)(C)/C=C/n1ncc(C(=O)N[C@H]2C3CC4CC2C[C@](CO)(C4)C3)c1CC(C)C` [Compound I-121], for which the pIC50 is 6.81 at Human 11β-HSD1 and 8.31 against Mouse 11β-HSD1.

On to `CC(C)COc1c(C(=O)N[C@H]2C3CC4CC2C[C@](CO)(C4)C3)cnn1/C=C/C(C)(C)C(N)=O` [Compound I-63], for which the negative-log IC50 (pIC50) was 8.85 against Human 11β-HSD1 and 9.68 against Mouse 11β-HSD1. With `COC(=O)NC(C)(C)/C=C/n1ncc(C(=O)N[C@H]2C3CC4CC2C[C@](OC(N)=O)(C4)C3)c1-c1ccccc1` [Compound I-127], the pIC50 against Human 11β-HSD1 was 7.06; at Mouse 11β-HSD1, 8.52. On to `CC(C)COc1c(C(=O)N[C@H]2C3CC4CC2C[C@](O)(C4)C3)cnn1/C=C/C(C)(C)NC(=O)CCC1CCCC1` [Compound I-36], for which the pIC50 on Human 11β-HSD1 was 8.92; against Mouse 11β-HSD1 it was 9.00. On to `COC(=O)NC(C)(C)/C=C/n1ncc(C(=O)NC2C3CC4CC2CC(COC(N)=O)(C4)C3)c1-n1cccn1` (stereo not shown) [Compound I-139], for which the negative-log IC50 (pIC50) against Human 11β-HSD1 was 7.19; against Mouse 11β-HSD1, 9.43. `COC(=O)NC(C)(C)/C=C/n1ncc(C(=O)N[C@H]2C3CC4CC2C[C@](F)(C4)C3)c1-c1ccccc1` [Compound I-128]: the values for the negative-log IC50 (pIC50) at Human 11β-HSD1 and on Mouse 11β-HSD1 were 7.20 and 8.26, respectively. In the case of `CC(C)COc1c(C(=O)NC2C3CC4CC2CC(O)(C4)C3)cnn1C=CC(C)(C)NC(=O)COCc1ccccc1` (stereo not shown) [Compound I-77], the negative-log IC50 (pIC50) against Human 11β-HSD1 was 9.21; on Mouse 11β-HSD1 it was 9.64. As to `COC(=O)N[C@]12CC3CC(C1)[C@@H](NC(=O)c1cnn(/C=C/C(C)(C)NC(C)=O)c1OCC(C)C)C(C3)C2` [Compound I-54], the “log k′” value in data set [1] came out at 0.886. Consider `CC(=O)NC(C)(C)/C=C/n1ncc(C(=O)N[C@H]2C3CCCC2C[C@@H](C(N)=O)C3)c1OCC(C)C` [Compound I-42], for which, in data set [1], the “log k′” value was 0.805. The same measure, in the same setting: as for `COC(=O)NC(C)(C)/C=C/n1ncc(C(=O)NC23CCC(C(N)=O)(CC2)C3)c1OCC(C)C` [Compound I-13], the figure is 0.822.

These data come from US8383622B2 (priority 2007, dated 2013).
